Tests used:
Yes (h) = target: T1, Yes (h) (Homo sapiens, UniProt P07947); assay: Kinase inhibition assay, Yes (h) (Millipore, 33P-ATP filter assay); type: biochemical; conditions: read-out: IC50 against Yes kinase
T1 construct: purchased Millipore
Method: (§1) Compounds of the invention can be screened for activity against a range of protein kinases using the assays set out below. Kinase inhibition assays were carried out by Millipore, Dundee Technology Park, Dundee, UK.
(§2) In a final reaction volume of 25 μl, Yes (h) (5-10 mU) is incubated with 8 mM MOPS pH 7.0, 0.2 mM EDTA, 0.1 mg/ml poly(Glu, Tyr) 4:1, 10 mM MgAcetate and [γ-33P-ATP] (specific activity approx. 500 cpm/pmol, concentration as required). The reaction is initiated by the addition of the MgATP mix. After incubation for 40 minutes at room temperature, the reaction is stopped by the addition of 5 μl of a 3% phosphoric acid solution. 10 μl of the reaction is then spotted onto a Filtermat A and washed three times for 5 minutes in 75 mM phosphoric acid and once in methanol prior to drying and scintillation counting.

HCT116 cells = assay: Anti-proliferative activity, Alamar Blue assay; type: cell-based; conditions: Homo sapiens, HCT-116, 72 h incubation, read-out: cell proliferation IC50
Method: The anti-proliferative activities of compounds of the invention are determined by measuring the ability of the compounds to inhibition of cell growth in a number of cell lines. Inhibition of cell growth is measured using the Alamar Blue assay
The following protocol was used: • 1) HT29, HCT116 or Colo205 cells were seeded at an appropriate density and allowed to adhere overnight. • 2) Test compounds were prepared from 10 mM DMSO stocks to give a final concentration range as shown on the graphs. DMSO was constant throughout each experiment. • 3) Test compounds were incubated with the cells for 72 h at 37° C. 5% CO2 in a humidified atmosphere. • 4) Alamar blue 10% (v/v) was then added and incubated for a further 6 h, and fluorescent product detected using the BMG FLUOstar plate reader. • 5) Data was analysed using a 4-parameter logistic equation in Graph Pad Prism.

Flt3 (h) = target: T2, Flt3 (h) (Homo sapiens, UniProt P36888); assay: Kinase inhibition assay, Flt3 (h) (Millipore, 33P-ATP filter assay); type: biochemical
T2 construct: purchased Millipore
T2 sequence (P36888 27-993): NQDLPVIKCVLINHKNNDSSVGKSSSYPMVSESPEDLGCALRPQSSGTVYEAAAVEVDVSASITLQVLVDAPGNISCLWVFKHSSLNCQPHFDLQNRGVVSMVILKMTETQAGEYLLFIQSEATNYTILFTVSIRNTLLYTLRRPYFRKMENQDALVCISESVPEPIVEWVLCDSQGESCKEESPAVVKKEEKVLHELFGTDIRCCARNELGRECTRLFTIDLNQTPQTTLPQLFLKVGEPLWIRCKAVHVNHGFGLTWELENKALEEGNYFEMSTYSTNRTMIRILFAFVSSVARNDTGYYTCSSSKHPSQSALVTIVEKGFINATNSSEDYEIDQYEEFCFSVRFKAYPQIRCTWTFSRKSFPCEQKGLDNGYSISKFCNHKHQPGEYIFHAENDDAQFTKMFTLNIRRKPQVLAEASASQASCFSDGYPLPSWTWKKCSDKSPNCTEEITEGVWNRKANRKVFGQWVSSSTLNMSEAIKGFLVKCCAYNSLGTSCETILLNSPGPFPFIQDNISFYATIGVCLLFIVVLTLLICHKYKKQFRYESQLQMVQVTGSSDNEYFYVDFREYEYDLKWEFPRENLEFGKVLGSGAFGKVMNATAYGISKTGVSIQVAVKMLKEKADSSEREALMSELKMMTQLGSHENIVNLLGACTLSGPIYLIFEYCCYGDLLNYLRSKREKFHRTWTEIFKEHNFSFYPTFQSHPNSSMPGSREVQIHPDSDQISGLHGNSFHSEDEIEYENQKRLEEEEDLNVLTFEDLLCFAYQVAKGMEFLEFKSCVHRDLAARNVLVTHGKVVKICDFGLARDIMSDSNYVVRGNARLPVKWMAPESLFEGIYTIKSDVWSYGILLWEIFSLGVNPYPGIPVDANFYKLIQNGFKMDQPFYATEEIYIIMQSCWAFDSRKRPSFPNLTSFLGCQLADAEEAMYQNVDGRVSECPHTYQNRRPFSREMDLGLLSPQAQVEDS
Method: as §1
as §2, with “μL, Flt3” for “μl, Yes”, “50 μM EAIYAAPFAKKK,” for “0.1 mg/ml poly(Glu, Tyr) 4:1,”, “[[…]-33P-ATP]” for “[γ-33P-ATP]”, “μL” for “μl”, “P30 filtermat” for “Filtermat A”

KDR (h) = target: T3, KDR (h) (Homo sapiens, UniProt P35968); assay: Kinase inhibition assay, KDR (h) (Millipore, 33P-ATP filter assay); type: biochemical; conditions: read-out: IC50 against KDR kinase
T3 construct: purchased Millipore
Method: as §1
as §2, with “μL, KDR” for “μl, Yes”, “0.33 mg/mL myelin basic protein,” for “0.1 mg/ml poly(Glu, Tyr) 4:1,”, “Mg Acetate” for “MgAcetate”, “μL” for “μl”, “P30 filtermat” for “Filtermat A”

Flt4 (h) = target: T4, Flt4 (h) (Homo sapiens, UniProt P35916); assay: Kinase inhibition assay, Flt4 (h) (Millipore, 33P-ATP filter assay); type: biochemical
T4 construct: purchased Millipore
Method: as §1
as §2, with “μL, Flt4” for “μl, Yes”, “500 μM GGEEEEYFELVKKKK,” for “0.1 mg/ml poly(Glu, Tyr) 4:1,”, “[[…]-33P-ATP]” for “[γ-33P-ATP]”, “μL” for “μl”, “P30 filtermat” for “Filtermat A”

[1] = system: human HT29 colon carcinoma cells; assay: HT29 colony forming assay; type: cell-based; conditions: HT-29, 240 h, 10 days incubation, colonies counted
Method: The ability of compounds of the invention to prevent growth of discrete colonies of human HT29 colon carcinoma cells over a 10 day time course can be measured using the following protocol: • 1. HT29 cells (ECACC No. 91072201) are seeded in 24-well plates at a concentration of 75 cells per well and allowed to adhere overnight prior to addition of compound or vehicle control. • 2. Test compounds are prepared from 10 mM DMSO stocks to give a final concentration range of 10 μM, 3 μM, 1 μM, 0.3 μM, 0.1 μM, 0.03 μM, 0.01 μM and vehicle control. The DMSO content is constant at 0.1%. • 3. Test compounds are incubated with the cells for 10 days at 37° C. 5% CO2 in a humidified atmosphere. • 4. Colonies are fixed using Carnoy's Fixative (75% methanol, 25% acetic acid) for 5 minutes, and allowed to air dry. • 5. Colonies are stained using 0.4% (w/v) crystal violet for 2 minutes. • 6. Colonies (containing more than 50 cells) are counted by eye and data analysed using a 4-parameter logistic equation in GraphPad Prism.

T4 sequence (P35916 25-1363): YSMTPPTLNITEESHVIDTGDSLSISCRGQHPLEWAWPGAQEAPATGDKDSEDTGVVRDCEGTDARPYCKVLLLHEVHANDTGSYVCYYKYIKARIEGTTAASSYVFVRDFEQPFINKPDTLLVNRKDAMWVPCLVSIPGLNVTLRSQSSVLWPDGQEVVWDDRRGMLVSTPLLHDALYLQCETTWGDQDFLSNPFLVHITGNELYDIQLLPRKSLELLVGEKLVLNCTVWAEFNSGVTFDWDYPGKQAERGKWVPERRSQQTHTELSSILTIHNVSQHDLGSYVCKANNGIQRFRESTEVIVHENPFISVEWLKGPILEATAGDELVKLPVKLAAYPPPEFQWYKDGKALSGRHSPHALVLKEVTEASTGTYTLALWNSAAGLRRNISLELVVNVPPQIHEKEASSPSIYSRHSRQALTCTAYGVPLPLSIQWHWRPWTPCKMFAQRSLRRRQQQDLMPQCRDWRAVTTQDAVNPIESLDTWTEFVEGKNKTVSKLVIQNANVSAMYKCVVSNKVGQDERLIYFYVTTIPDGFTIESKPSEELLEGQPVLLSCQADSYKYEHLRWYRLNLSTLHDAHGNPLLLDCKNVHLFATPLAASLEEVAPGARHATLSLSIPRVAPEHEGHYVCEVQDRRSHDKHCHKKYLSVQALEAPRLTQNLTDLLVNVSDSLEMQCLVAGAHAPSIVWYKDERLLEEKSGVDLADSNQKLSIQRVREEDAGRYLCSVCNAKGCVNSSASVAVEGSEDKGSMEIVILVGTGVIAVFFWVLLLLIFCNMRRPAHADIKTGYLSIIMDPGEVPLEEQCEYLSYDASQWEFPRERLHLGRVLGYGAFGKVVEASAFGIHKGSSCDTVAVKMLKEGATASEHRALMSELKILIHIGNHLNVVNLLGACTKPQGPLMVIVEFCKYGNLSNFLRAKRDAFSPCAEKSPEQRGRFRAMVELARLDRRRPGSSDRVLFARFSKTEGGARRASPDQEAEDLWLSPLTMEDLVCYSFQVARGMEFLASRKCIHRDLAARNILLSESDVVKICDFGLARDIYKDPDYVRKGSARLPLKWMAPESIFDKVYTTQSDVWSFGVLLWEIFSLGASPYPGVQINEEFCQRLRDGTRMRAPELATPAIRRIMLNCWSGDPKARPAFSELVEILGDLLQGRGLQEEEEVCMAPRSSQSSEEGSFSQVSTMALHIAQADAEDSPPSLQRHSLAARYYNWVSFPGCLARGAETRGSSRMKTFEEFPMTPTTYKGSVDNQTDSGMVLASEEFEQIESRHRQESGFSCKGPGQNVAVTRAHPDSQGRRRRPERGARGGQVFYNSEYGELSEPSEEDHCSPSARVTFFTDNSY
T3 sequence (P35968 20-1356): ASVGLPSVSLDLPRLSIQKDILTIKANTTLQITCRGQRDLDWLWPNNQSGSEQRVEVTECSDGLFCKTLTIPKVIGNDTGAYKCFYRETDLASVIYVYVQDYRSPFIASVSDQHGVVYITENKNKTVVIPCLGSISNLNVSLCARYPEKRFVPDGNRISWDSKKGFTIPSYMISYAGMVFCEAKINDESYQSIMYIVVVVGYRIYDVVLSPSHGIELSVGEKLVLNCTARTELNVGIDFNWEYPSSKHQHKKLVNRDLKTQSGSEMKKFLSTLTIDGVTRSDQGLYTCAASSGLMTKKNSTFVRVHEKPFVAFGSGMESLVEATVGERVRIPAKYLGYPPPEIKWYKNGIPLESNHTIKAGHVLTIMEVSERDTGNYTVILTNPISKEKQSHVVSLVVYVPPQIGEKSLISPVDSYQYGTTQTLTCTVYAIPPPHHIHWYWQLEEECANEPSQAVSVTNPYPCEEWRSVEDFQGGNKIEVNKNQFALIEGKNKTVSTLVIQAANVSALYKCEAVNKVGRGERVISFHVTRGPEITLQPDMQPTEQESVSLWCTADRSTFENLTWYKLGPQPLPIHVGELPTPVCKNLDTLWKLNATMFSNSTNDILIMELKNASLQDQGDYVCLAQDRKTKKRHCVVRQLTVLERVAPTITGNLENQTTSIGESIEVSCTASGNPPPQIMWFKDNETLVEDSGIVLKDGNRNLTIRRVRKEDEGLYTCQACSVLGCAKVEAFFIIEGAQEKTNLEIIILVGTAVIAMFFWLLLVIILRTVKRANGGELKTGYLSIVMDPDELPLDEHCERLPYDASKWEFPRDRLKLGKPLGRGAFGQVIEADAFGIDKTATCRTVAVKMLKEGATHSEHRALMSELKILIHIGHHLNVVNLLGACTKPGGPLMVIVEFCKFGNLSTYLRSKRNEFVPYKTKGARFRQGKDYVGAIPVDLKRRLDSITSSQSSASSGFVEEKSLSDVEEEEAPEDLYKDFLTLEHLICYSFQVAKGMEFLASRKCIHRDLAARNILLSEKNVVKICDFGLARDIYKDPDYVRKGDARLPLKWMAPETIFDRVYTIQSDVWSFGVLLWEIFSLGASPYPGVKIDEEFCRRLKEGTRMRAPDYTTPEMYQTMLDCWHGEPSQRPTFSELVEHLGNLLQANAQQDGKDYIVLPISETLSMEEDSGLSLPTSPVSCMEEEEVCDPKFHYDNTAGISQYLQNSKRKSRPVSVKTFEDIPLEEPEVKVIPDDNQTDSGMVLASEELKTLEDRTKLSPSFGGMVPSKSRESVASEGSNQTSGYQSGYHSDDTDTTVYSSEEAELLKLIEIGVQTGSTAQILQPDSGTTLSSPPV
T1 sequence (P07947 whole entry): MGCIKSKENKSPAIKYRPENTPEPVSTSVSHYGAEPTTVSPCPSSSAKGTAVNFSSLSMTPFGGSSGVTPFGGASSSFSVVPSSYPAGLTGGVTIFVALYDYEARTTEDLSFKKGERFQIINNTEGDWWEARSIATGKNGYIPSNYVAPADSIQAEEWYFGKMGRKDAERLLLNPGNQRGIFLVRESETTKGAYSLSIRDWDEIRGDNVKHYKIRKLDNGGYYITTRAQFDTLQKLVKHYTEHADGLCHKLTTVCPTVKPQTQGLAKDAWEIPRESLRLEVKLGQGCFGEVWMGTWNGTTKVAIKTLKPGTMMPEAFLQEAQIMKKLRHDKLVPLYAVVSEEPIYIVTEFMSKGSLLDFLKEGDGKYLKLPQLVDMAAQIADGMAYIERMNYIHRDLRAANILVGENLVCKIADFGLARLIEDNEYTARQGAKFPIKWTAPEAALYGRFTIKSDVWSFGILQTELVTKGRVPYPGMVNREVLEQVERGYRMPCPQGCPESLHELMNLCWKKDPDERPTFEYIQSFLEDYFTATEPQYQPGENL

Q: Which IC50 (Yes (h)) does the source give for `c1ccc2cc(Nc3cc(CN4CCCC4)ccn3)ncc2c1` [Example 1, Isoquinolin-3-yl-(4-pyrrolidin-1-ylmethyl-pyridin-2-yl)-amine] here?
A: Its IC50 is < 5000 nM.

Q: What about the IC50 (HCT116 cells) of the same compound?
A: Its IC50 is < 25000 nM.

Q: And the IC50 (Flt3 (h))?
A: The IC50 was < 100 nM.

Q: And the IC50 (KDR (h))?
A: The IC50 was < 5000 nM.

Q: And the IC50 (Flt4 (h))?
A: Its IC50 is < 500 nM.

Q: What about the IC50 [1] of the same compound?
A: Its IC50 is 1380 nM.

Q: For `Clc1ccc2cc(Nc3cc(CN4CCCC4)ccn3)ncc2c1` [Example 14, 7-Chloroisoquinolin-3-yl-(4-pyrrolidin-1-ylmethyl-pyridin-2-yl)-amine], which IC50 (Flt3 (h)) is on record?
A: Its IC50 is < 100 nM.

Q: What about the IC50 (Flt4 (h)) of the same compound?
A: Its IC50 is > 100 nM.

Q: What does the source list for `COc1ccc2cnc(Nc3cc(CN4CCCC4)ccn3)cc2c1` [Example 17, (6-Methoxy-isoquinolin-3-yl)-(4-pyrrolidin-1-ylmethyl-pyridin-2-yl)-amine]?
A: IC50 (Flt3 (h)): < 100 nM; IC50 (Flt4 (h)): < 100 nM

Q: With `Fc1ccc2cc(Nc3cc(CN4CCCC4)ccn3)ncc2c1` [Example 18, 7-Fluoroisoquinolin-3-yl-(4-pyrrolidin-1-ylmethyl-pyridin-2-yl)-amine] as the compound, how does the IC50 (Flt3 (h)) read?
A: Its IC50 is < 100 nM.

Q: And the IC50 (Flt4 (h))?
A: Its IC50 is < 100 nM.

Q: Which IC50 (Flt3 (h)) does the source give for `CNC(=O)N1CCN(Cc2ccnc(Nc3cc4ccccc4cn3)c2)CC1` [Example 19, 4-[2-(Isoquinolin-3-ylamino)-pyridin-4-ylmethyl]-piperazine-1-carboxylic acid methylamide] here?
A: The IC50 was < 100 nM.

Q: What about the IC50 (Flt4 (h)) of the same compound?
A: The IC50 was < 100 nM.

Q: What does the source list for `CN(C)C(=O)N1CCN(Cc2ccnc(Nc3cc4ccccc4cn3)c2)CC1` [Example 20, 4-[2-(Isoquinolin-3-ylamino)-pyridin-4-ylmethyl]-piperazine-1-carboxylic acid dimethylamide]?
A: IC50 (Flt3 (h)): < 100 nM; IC50 (Flt4 (h)): < 100 nM

Q: What does the source list for `c1ccc2cc(Nc3cc(CN4CCNCC4)ccn3)ncc2c1` [Example 21B, Isoquinolin-3-yl-(4-piperazin-1-ylmethyl-pyridin-2-yl)-amine]?
A: IC50 (Flt3 (h)): < 5000 nM; IC50 (Flt4 (h)): < 500 nM

Q: How did the IC50 (Flt3 (h)) turn out when `NC(=O)N1CCN(Cc2ccnc(Nc3cc4ccccc4cn3)c2)CC1` [Example 21C, 4-[2-(Isoquinolin-3-ylamino)-pyridin-4-ylmethyl]-piperazine-1-carboxylic acid amide] was run?
A: The IC50 was < 100 nM.

Q: And the IC50 (Flt4 (h))?
A: Its IC50 is < 500 nM.

Q: For `CC(=O)N1CCN(Cc2ccnc(Nc3cc4ccccc4cn3)c2)CC1` [Example 22, 1-[4-[2-(Isoquinolin-3-ylamino)-pyridin-4-ylmethyl]-piperazin-1-yl]-ethanone], which IC50 (Flt3 (h)) is on record?
A: Its IC50 is < 100 nM.

Q: And the IC50 (Flt4 (h))?
A: Its IC50 is < 500 nM.

Q: What does the source list for `O=C(CO)N1CCN(Cc2ccnc(Nc3cc4ccccc4cn3)c2)CC1` [Example 23B, 2-Hydroxy-1-{4-[2-(isoquinolin-3-ylamino)-pyridin-4-ylmethyl]-piperazin-1-yl}-ethanone]?
A: IC50 (Flt3 (h)): < 100 nM; IC50 (Flt4 (h)): < 100 nM
